Consider 13 compounds from US20230096766A1, “AMINO ACID HAVING FUNCTIONAL GROUP CAPABLE OF INTERMOLECULAR HYDROGEN BONDING, PEPTIDE COMPOUND CONTAINING SAME AND METHOD FOR PRODUCTION THEREOF” (Chugai Seiyaku Kabushiki Kaisha, priority 2018, published 2023).

*1 amine or outer side, *2 acyl side, *3 side chain or, on linkers, in order; H or OH if unused. Where a SMILES comes first, the peptide text is derived from it. Bridges are numbered along the chain shown (N, C = ends). [ ]: non-standard residue; d: D form. The star is where a group is joined. ξ: configuration not given here. NMeHph(3-OMe-4-CONHMe) = CNC(=O)c1ccc(CC[C@H](NC)C(=O)O)cc1OC; X19 = CC(C)C[C@H](NN(C)[C@H](Cc1ccccc1)N(C)[*:1])C(=O)[*:2]; hPhe(3-OMe,4-CONHMe) = CNC(=O)c1ccc(CC[C@H](N)C(=O)O)cc1OC; Phe(3-OMe,4-CONHMe) = CNC(=O)c1ccc(C[C@H](N)C(=O)O)cc1OC; X1 = COc1cc(C[C@H](N[*:1])C(=O)[*:2])ccc1C(=O)NO; NMePhe(3-Cl) = CN[C@@H](Cc1cccc(Cl)c1)C(=O)O; X12 = O=C([C@H](CCCC(O)C(F)(F)F)N[*:1])[*:2]; Tyr(3-OMe) = COc1cc(C[C@H](N)C(=O)O)ccc1O; NMeF = CN[C@@H](Cc1ccccc1)C(=O)O; NMeGABA = CN(CCCC(=O)[*:2])[*:1]; NMeI = CC[C@H](C)[C@H](NC)C(=O)O; NMeL = CN[C@@H](CC(C)C)C(=O)O; Thr(3ξ) = CC(O)[C@H](N)C(=O)O; Propyl(2R-OH) = C[C@@H](O)C*; NMeV = CN[C@H](C(=O)O)C(C)C; NMeAbu = CC[C@H](NC)C(=O)O; NMeA = CN[C@@H](C)C(=O)O; Piperidide = C1CCN(*)CC1; CH2CMe2OH = CC(C)(O)C*; X8 = C1COC[C@@H](C*)N1; NBuGly = CCCCNCC(=O)O; Sar = CNCC(=O)O; tBu = CC(C)(C)*

One may read the Papp as a coefficient for how fast a substance crosses the barrier. The low end stands for slow passage, the high end for fast passage.

A short description of one data set: in vitro. The conditions noted are these: human, Caco-2, Caco-2 (cm/sec).
For the compound `CC[C@H](C)[C@@H]1NC(=O)[C@H](C(C)C)N(C)C(=O)CCCN(C)C(=O)C[C@@H](C(=O)N2CCCCC2)NC(=O)[C@H](CC(C)C)N(C)C(=O)[C@H](C)N(C)C(=O)[C@H](Cc2ccc(O)cc2)NC(=O)[C@H](CC(C)C)N(C)C(=O)[C@H](COC(C)(C)C)NC(=O)[C@H](Cc2ccccc2)N(C)C(=O)[C@H](CC(C)C)N(C)C1=O` [pd125] ([NMeGABA][NMeV]I[NMeL][NMeF]S(tBu)[NMeL]Y[NMeA][NMeL]D-Piperidide; lactam N-11), the Papp came out at 0.45 ×10⁻⁶ cm/s.
Same read-out and setting: for `CCCCN1CC(=O)N(C)[C@@H](CC(C)C)C(=O)N[C@@H](Cc2ccc(C(=O)NO)c(OC)c2)C(=O)N(C)[C@@H](CC(C)C)C(=O)N(C)[C@@H](CC(C)C)C(=O)N[C@H](C(=O)N2CCCCC2)CC(=O)N[C@H](CC(C)C)C(=O)N(C)[C@@H](Cc2ccccc2)C(=O)N[C@@H](C(C)C)C(=O)N(C)[C@@H](CC(C)C)C(=O)N[C@@H]([C@@H](C)O)C1=O` [AP257] ([dL][NMeF]V[NMeL]T[NBuGly][NMeL][X1][NMeL][NMeL]D-Piperidide; lactam N-11) the value was 0.03 ×10⁻⁶ cm/s; for `CC(C)C[C@@H]1NC(=O)[C@H](Cc2ccccc2)N(C)C(=O)[C@@H](C(C)C)NC(=O)C[C@@H](C(=O)N2CCCCC2)NC(=O)[C@H](CC(C)C)N(C)C(=O)[C@H](Cc2cccc(Cl)c2)N(C)C(=O)[C@H](COCC(C)(C)O)NC(=O)[C@H](CC(C)C)N(C)C(=O)CN(C)C(=O)[C@H]([C@@H](C)O)NC(=O)[C@H](CC(C)C)N(C)C1=O` [AP02] ([dV][NMeF]L[NMeL]T[Sar][NMeL]S(CH2CMe2OH)[NMePhe(3-Cl)][NMeL]D-Piperidide; lactam N-11), 1.3 ×10⁻⁶ cm/s; for `CCCCN1CC(=O)N(C)[C@@H](Cc2ccccc2)C(=O)N(C)[C@@H](CC(C)C)C(=O)N[C@@H](C(C)C)C(=O)N(C)[C@@H](CC(C)C)C(=O)N[C@H](C(=O)N2CCCCC2)CC(=O)N(C)CC(=O)N(C)[C@@H](CC(C)C)C(=O)N[C@@H](COC[C@@H]2COCCN2)C(=O)N(C)[C@@H](CC(C)C)C(=O)N[C@@H]([C@@H](C)O)C1=O` [AP244] ([Sar][NMeL]S(X8)[NMeL]T[NBuGly][NMeF][NMeL]V[NMeL]D-Piperidide; lactam N-11), 0.46 ×10⁻⁶ cm/s.
Consider `CC(C)C[C@H]1C(=O)N[C@@H](C(C)C)C(=O)N(C)[C@@H](Cc2ccccc2)C(=O)N(C)[C@@H](Cc2ccccc2)C(=O)N[C@@H](COC(C)(C)C)C(=O)N(C)[C@@H](CC(C)C)C(=O)N[C@@H](COC[C@@H](C)O)C(=O)N(C)[C@@H](CC(C)C)C(=O)N(C)[C@@H](CC(C)C)C(=O)N[C@H](C(=O)N2CCCCC2)CC(=O)N(C)CCCC(=O)N1C` [AP83] ([NMeGABA][NMeL]V[NMeF][NMeF]S(tBu)[NMeL]S(Propyl(2R-OH))[NMeL][NMeL]D-Piperidide; lactam N-11), for which the Papp came out at 1.3 ×10⁻⁶ cm/s.
In turn, `COc1cc(C[C@@H]2NC(=O)[C@H](CC(C)C)N(C)C(=O)CN(C)C(=O)[C@H]([C@@H](C)O)NC(=O)[C@H](CC(C)C)N(C)C(=O)[C@H](CC(C)C)NN(C)[C@H](Cc3ccccc3)N(C)C(=O)[C@@H](C(C)C)NC(=O)C[C@@H](C(=O)N3CCCCC3)NC(=O)[C@H](CC(C)C)N(C)C(=O)[C@H](CC(C)C)N(C)C2=O)ccc1O` [Compound E01] ([dV][X19][NMeL]T[Sar][NMeL][Tyr(3-OMe)][NMeL][NMeL]D-Piperidide; lactam N-10) had a Papp of 1.1 ×10⁻⁶ cm/s.
As for `CC[C@H](C)[C@@H]1NC(=O)[C@H](CC(C)C)N(C)C(=O)CN(C)C(=O)C[C@@H](C(=O)N2CCCCC2)NC(=O)[C@H](CC(C)C)N(C)C(=O)[C@H](Cc2ccc(C(=O)NO)c(OC)c2)NC(=O)[C@H](CC(C)C)N(C)C(=O)[C@H](Cc2cccc(Cl)c2)N(C)C(=O)CN(C)C(=O)[C@H](C(C)O)NC(=O)[C@H](CC(C)C)N(C)C1=O` (stereo partly drawn) [AP261] ([Sar][NMeL]I[NMeL][Thr(3ξ)][Sar][NMePhe(3-Cl)][NMeL][X1][NMeL]D-Piperidide; lactam N-11), the Papp worked out at 0.02 ×10⁻⁶ cm/s.
`CCCCN1CC(=O)N(C)[C@@H](CC(C)C)C(=O)N[C@@H](COC(C)(C)C)C(=O)N(C)[C@@H](CC(C)C)C(=O)N(C)[C@@H](CC)C(=O)N[C@H](C(=O)N2CCCCC2)CC(=O)N[C@H](CC(C)C)C(=O)N(C)[C@@H](Cc2ccccc2)C(=O)N[C@@H](CCc2ccc(C(=O)NC)c(OC)c2)C(=O)N(C)[C@@H](CC(C)C)C(=O)N[C@@H]([C@@H](C)O)C1=O` [AP201] ([dL][NMeF][hPhe(3-OMe,4-CONHMe)][NMeL]T[NBuGly][NMeL]S(tBu)[NMeL][NMeAbu]D-Piperidide; lactam N-11) had a Papp of 0.35 ×10⁻⁶ cm/s.
Still for that read-out and setting: the same measure for `CCCCN1CC(=O)N(C)[C@@H](CC(C)C)C(=O)N[C@@H](COC(C)(C)C)C(=O)N(C)[C@@H]([C@@H](C)CC)C(=O)N(C)[C@@H](CC(C)C)C(=O)N[C@H](C(=O)N2CCCCC2)CC(=O)N[C@H](C)C(=O)N(C)[C@@H](Cc2ccccc2)C(=O)N[C@@H](Cc2ccc(C(=O)NC)c(OC)c2)C(=O)N(C)[C@@H](CC(C)C)C(=O)N[C@@H]([C@@H](C)O)C1=O` [AP29] ([dA][NMeF][Phe(3-OMe,4-CONHMe)][NMeL]T[NBuGly][NMeL]S(tBu)[NMeI][NMeL]D-Piperidide; lactam N-11): 0.36 ×10⁻⁶ cm/s.
The same measure, in the same setting: the same measure for `CC[C@H](C)[C@@H]1NC(=O)[C@H](CC(C)C)N(C)C(=O)CCCN(C)C(=O)C[C@@H](C(=O)N2CCCCC2)NC(=O)[C@H](CC(C)C)N(C)C(=O)[C@H](C)N(C)C(=O)[C@H](Cc2c[nH]c3ccccc23)NC(=O)[C@H](CC(C)C)N(C)C(=O)[C@H](COC(C)(C)C)NC(=O)[C@H](CC(C)C)N(C)C(=O)[C@H](CC(C)C)N(C)C1=O` [pd110] ([NMeGABA][NMeL]I[NMeL][NMeL]S(tBu)[NMeL]W[NMeA][NMeL]D-Piperidide; lactam N-11): 0.29 ×10⁻⁶ cm/s.
The same measure, in the same setting: the same measure for `CC(C)C[C@@H]1NC(=O)[C@H](Cc2ccccc2)N(C)C(=O)[C@@H](C(C)C)NC(=O)C[C@@H](C(=O)N2CCCCC2)NC(=O)[C@H](C)N(C)C(=O)[C@H](CC(C)C)N(C)C(=O)[C@H](COC(C)(C)C)NC(=O)[C@H](CC(C)C)N(C)C(=O)CN(C)C(=O)[C@H](Cc2ccc(O)cc2)NC(=O)[C@H](CC(C)C)N(C)C1=O` [pd127] ([dV][NMeF]L[NMeL]Y[Sar][NMeL]S(tBu)[NMeL][NMeA]D-Piperidide; lactam N-11): 0.13 ×10⁻⁶ cm/s; for `CC[C@H](C)[C@@H]1NC(=O)[C@H](CC(C)C)N(C)C(=O)CCCN(C)C(=O)C[C@@H](C(=O)N2CCCCC2)NC(=O)[C@H](CC(C)C)N(C)C(=O)[C@H](CCc2ccc(C(=O)NC)c(OC)c2)N(C)C(=O)[C@H]([C@@H](C)O)NC(=O)[C@H](CC(C)C)N(C)C(=O)[C@H](COC(C)(C)C)NC(=O)[C@H](CC(C)C)N(C)C(=O)[C@H](Cc2ccccc2)N(C)C1=O` [AP228] ([NMeGABA][NMeL]I[NMeF][NMeL]S(tBu)[NMeL]T[NMeHph(3-OMe-4-CONHMe)][NMeL]D-Piperidide; lactam N-11): 0.84 ×10⁻⁶ cm/s.

Staying with this data set, now noted: human, Caco-2, Caco-2 (membrane permeability).
Regarding `CCCCN1CC(=O)N(C)[C@@H](Cc2ccccc2)C(=O)N(C)[C@@H](CC(C)C)C(=O)N[C@@H](COC(C)(C)C)C(=O)N(C)[C@@H](CC(C)C)C(=O)N[C@H](C(=O)N2CCCCC2)CC(=O)N(C)CC(=O)N(C)[C@@H](Cc2cccc(Cl)c2)C(=O)N[C@@H](CCCC(O)C(F)(F)F)C(=O)N(C)[C@@H](CC(C)C)C(=O)N[C@@H]([C@@H](C)O)C1=O` (stereo partly drawn) [Compound D06] ([Sar][NMePhe(3-Cl)][X12][NMeL]T[NBuGly][NMeF][NMeL]S(tBu)[NMeL]D-Piperidide; lactam N-11), the Papp is 0.23 ×10⁻⁶ cm/s.
